Data set [1] can be described thus: Oral pharmacokinetics in mice. The settings on record: for Tmax / bioavailability: mouse, in vivo; for bioavailability: read-out: oral bioavailability % F. The class given is in vivo.
A further data set deals with MV4-11 xenografts. Briefly: In vivo pathway modulation in MV4-11 xenografts. The settings on record: 4 hours and 24 hours after a single oral dose, MV4-11 xenografts in mice. How it is done:
Pathway modulation was assessed in vivo using MV4-11 xenografts in mice. […] Efficacy was assessed by 21-day dosing in MV4-11 xenografts.

A further data set in a line: Aqueous solubility. The class given is physicochemical. From the text:
The present invention provides a process for the preparation of a pharmaceutical composition comprising active compounds as described herein, with improved absorption. […] According to the process of the present invention, it is possible to provide, from an active compound, a formulation in which the dissolution rate and oral bioavailability of the drug are high. Furthermore, the solid dispersion extrudates of the present invention have good stability at room temperature.
To overcome the inherent hurdles posed by this class of drugs, three alternative formulation approaches were screened: lipid-based formulation, nano-suspension, and solid dispersion via hot melt extrusion (HME).

The target in another data set is T1, PDK1 (Homo sapiens, UniProt O15530).
T1 sequence (O15530 1-556): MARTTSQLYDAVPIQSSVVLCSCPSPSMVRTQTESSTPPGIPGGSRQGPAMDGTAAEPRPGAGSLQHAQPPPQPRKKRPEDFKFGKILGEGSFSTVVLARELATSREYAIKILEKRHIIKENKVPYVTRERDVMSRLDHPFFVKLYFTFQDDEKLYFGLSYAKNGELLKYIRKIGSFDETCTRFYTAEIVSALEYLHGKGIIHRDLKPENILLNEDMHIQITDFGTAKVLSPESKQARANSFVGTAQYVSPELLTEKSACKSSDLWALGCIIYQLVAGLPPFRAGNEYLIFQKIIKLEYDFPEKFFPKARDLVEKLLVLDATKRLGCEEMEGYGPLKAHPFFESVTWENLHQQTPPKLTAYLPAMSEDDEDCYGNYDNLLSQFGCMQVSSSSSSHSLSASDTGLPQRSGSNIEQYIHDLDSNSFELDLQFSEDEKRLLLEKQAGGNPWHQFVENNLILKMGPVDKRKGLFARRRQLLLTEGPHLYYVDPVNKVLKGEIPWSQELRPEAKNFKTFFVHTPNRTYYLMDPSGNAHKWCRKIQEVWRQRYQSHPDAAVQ
As to the kind of experiment: PDK1 biochemical potency (binding of the inactive conformation). As to conditions: compared to the PDK1 inhibitor GSK2334470. The text has this:
(§1) The compounds bind deep in the adaptive (allosteric) pocket, causing a distortion in the N-terminal domain thereby perturbing the PIF-pocket and thus negatively modulating PI-independent substrate binding. […] Anti-proliferative activity correlated with pathway modulation assessed by inhibition of phosphorylation of PDK1, RSK2, and AKT.

Data set [2] has as its system cell lines derived from hematologic cancers. Briefly: Anti-proliferative activity in a panel of hematologic cancer cell lines. Format: cell-based. As to conditions: panel of more than 20 cell lines: AML, multiple myeloma, DLBCL, Mantle cell lymphoma.
Excerpt: as §1

Data set [3] has as its system phosphorylation of PDK1, RSK2, and AKT. Briefly: Pathway modulation in cells: inhibition of phosphorylation. Format: cell-based.
Excerpt: as §1

In data set [4] the test system is cell lines derived from hematologic cancers. Briefly: Apoptosis induction in cancer cell lines. Format: cell-based. As to conditions: after 24 hours.
Excerpt: as §1

For data set [5] the test system is unchanged. Briefly: 72-hour viability assays. Format: cell-based.
Excerpt: as §1

≈ marks a conversion by molar mass, not a printed value.

What is called Tmax is the time from dosing to the highest level. One may read the bioavailability as the share of a dose that reaches the circulation, judged against a reference dose that is usually intravenous. The solubility is the concentration that dissolves in the medium under given conditions. The low end stands for little dissolved substance, the high end for much dissolved substance. For orientation: EC50 means the concentration at which the effect is half-maximal. Read a low EC50 as higher potency in that assay.

As to `C[C@H](NC(=O)c1nc(C#N)cnc1NCc1ccc(-c2cnc3[nH]nc(N)c3n2)cc1)c1ccc(F)c(F)c1` (stereo in doubt) [Compound 1, 3-[4-(3-Amino-1H-pyrazolo[3,4-b]pyrazin-5-yl)-benzylamino]-6-cyano-pyrazine-2-carboxylic acid [1-(3,4-difluoro-phenyl)-ethyl]-amide], in data set [1], the half-life entry is “long half-life”, the Tmax fell in the range of 4 to 8 h and the bioavailability was over 40%. The “pathway modulation in vivo” value with MV4-11 xenografts was “Potent pathway modulation”. For the same compound, the solubility in “Aqueous solubility” (aqueous buffer, over the physiological pH range) was under 0.1 µg/mL. The same compound displayed a solubility in the data set “Aqueous solubility” (aqueous medium (not specified further)) of 0.1 µg/mL (≈ 0.19 µM).
For the compound `CNc1n[nH]c2ncc(-c3ccc(CNc4ncc(C#N)nc4C(=O)N[C@@H](C)c4ccc(F)c(F)c4)cc3)cc12` [Compound 2, 6-Cyano-3-[4-(3-methylamino-1H-pyrazolo[3,4-b]pyridin-5-yl)-benzylamino]-pyrazine-2-carboxylic acid [1-(3,4-difluoro-phenyl)-ethyl]-amide], the “biochemical potency compared to GSK2334470” value at PDK1 is given as “comparable biochemical potency”. Besides, in data set [2], the half-maximal effective concentration (EC50) is 3 to 900 nM. Also, in data set [3] (24 hours vs 4 hours), the “inhibition of PDK1 phosphorylation, fold more after 24 hours than 4 hours” value is recorded as 2-5 fold. In data set [3] (all cell lines tested), the “fold more potent than GSK2334470 at inhibiting PDK1 and RSK2 phosphorylation” value was 10- to 30 fold. Moreover, the apoptosis result in data set [4] is on record as “substantial apoptosis”. Further, the “fold more potent than GSK2334470 in viability assays” value in data set [5] was “at least 10 fold”. Further, in data set [1], the half-life entry is “long half-life”, the Tmax was in the range of 4 to 8 h and the bioavailability is over 40%. Besides, the “pathway modulation in vivo” value in the data set on MV4-11 xenografts was “Potent pathway modulation”.

(Values after patent US20200390764A1, “PHARMACEUTICAL FORMULATIONS, PROCESSES FOR PREPARATION, AND METHODS OF USE” (Sunesis Pharmaceuticals, Inc., priority 2017, published 2020).)
